The source of these data is article PMC6150270, “Solvent and Copper Ion-Induced Synthesis of Pyridyl–Pyrazole-3-One Derivatives: Crystal Structure, Cytotoxicity” (Molecules : A Journal of Synthetic Chemistry and Natural …, 2017).

The subject of data set [1] is NCI-H460 tumor cell line. Kind of data set: MTT cytotoxicity assay, NCI-H460. Particulars: for IC50: 48 h, MTT, mean ± SD; for inhibition at 20 µM: read-out: Inhibition rate NCI-H460. In kind it is cell-based, human. On the procedure:
(§1) The cytotoxicities of compounds 1–5 against the human tumor cell lines BEL-7404, HepG2, NCI-H460, T-24 and A549, as well as human normal liver cell line HL-7702, were tested by the MTT assay. Cisplatin was also tested for comparison.
(§2) All the cells were maintained in DMEM (Dulbecco’s Modified Eagle Medium) supplemented with 10% fetal calf serum, 100 units/mL ampicillin and […] streptomycin sulfate at 37 °C in a humidified atmosphere under 5% CO2. Compounds 1–5 were dissolved in DMSO at a concentration of 2.0 mM stock solution. The stock was diluted by PBS to the required concentration immediately before use.
(§3) Cisplatin was prepared according to a literature procedure. The cells were all grown in 96-well, flat-bottomed microtiter plates. Compounds 1–5 and cisplatin were dissolved in the culture medium (containing 1% DMSO) to a concentration of 100 μg/mL. The resultant solutions were subsequently added to a set of wells. The wells for control contained the supplemented medium with 1% DMSO. The microtiter plates were incubated at 37 °C in a humidified atmosphere of 5% CO2/95% air for a further 48 h. At the end of each incubation period, the 3-(4,5-dimethylthiazol-2-yl)-2,5-diphenyltetrazolium bromide (MTT) solution (10 μL, 5 mg/mL) was added into each well and the cultures were further incubated for 6 h under the same conditions. After the removal of the supernatant, DMSO (100 μL) was added to dissolve the formazan crystals. The absorbance of the solution was read by an enzyme-labeled microplate reader with 490/630 nm double wavelength measurement. The cytotoxicity was evaluated based on the percentage of cell survival in a dose-dependent manner relative to the negative control. The final IC50 values were calculated by the Bliss method (n = 5). All tests were repeated in at least three independent trials.

Data set [2] concerns T-24 tumor cell line. Kind of data set: MTT cytotoxicity assay, T-24. In kind it is cell-based, human. Particulars: for IC50: 48 h, MTT, mean ± SD; for inhibition at 20 µM: read-out: Inhibition rate T-24. Here is the method:
as §1, §2, §3
In general terms: Tetrazolium assays rely on reduction of a dye to a coloured formazan, in cell work by metabolically active cells.

Data set [3] deals with HepG2 tumor cell line. Kind of data set: MTT cytotoxicity assay, HepG2. Type of data set: cell-based, human. Particulars: for IC50 / inhibition at 20 µM: Homo sapiens, HepG2; for IC50: 48 h, mean ± SD; for IC50 / Growth inhibition on HepG2 cell lines (in words): MTT; for inhibition at 20 µM: read-out: Inhibition rate HepG2; for Cytotoxicity toward HepG2 enhanced compared with normal liver cell HL-7702: ratio of IC50 HL-7702 to IC50 HepG2. On the procedure: as §1, §2, §3

Data set [4] has as its system normal liver cell line HL-7702. Kind of data set: MTT cytotoxicity assay, HL-7702. In kind it is cell-based, human. Particulars: normal liver cells; for IC50: 48 h, MTT, mean ± SD; for inhibition at 20 µM: read-out: Inhibition rate HL-7702. Here is the method:
as §1, §2, §3

Data set [5] relates to BEL-7404 tumor cell line. Kind of data set: MTT cytotoxicity assay, BEL-7404. In kind it is cell-based, human. Particulars: for IC50: 48 h, MTT, mean ± SD; for inhibition at 20 µM: read-out: Inhibition rate BEL-7404. Here is the method: as §1, §2, §3
Data set [6] deals with A549 tumor cell line. Kind of data set: MTT cytotoxicity assay, A549. Type of data set: cell-based. Particulars: Homo sapiens; for IC50: 48 h, MTT, mean ± SD; for inhibition at 20 µM: complexes 1-5 at 20 μM, incubation 48 h, read-out: Inhibition rate A549. Here is the method: as §1, §2, §3
Where [7] appears, read: complexes 1-5 at 20 μM, incubation 48 h.
Where [8] appears, read: Homo sapiens, NCI-H460, complexes 1-5 at 20 μM, incubation 48 h.
The mark [9] stands for this setting: Homo sapiens, complexes 1-5 at 20 μM, incubation 48 h.
The mark [10] stands for this setting: Homo sapiens, L02, complexes 1-5 at 20 μM, incubation 48 h.
Setting [11] is: Homo sapiens, BEL-7404, complexes 1-5 at 20 μM, incubation 48 h.

Molecules are shown by their SMILES.

As for `N.N.[Cl][Pt][Cl]` [Cisplatin, reference compound], the half-inhibitory concentration (IC50) in data set [1] is 18.9 ± 1.02 µM; in data set [2], 28.1 ± 1.88 µM; in data set [4] it was 5.63 ± 0.32 µM; in data set [5], 12.4 ± 0.38 µM. The “Inhibition rate NCI-H460” value in data set [1] (setting [7]) is recorded as 50.88±3.69. Moreover, the “Inhibition rate T-24” value in data set [2] (setting [7]) was 47.58±2.65. For the same molecule, in data set [3] (setting [7]), the “Inhibition rate HepG2” value is given as 60.63±0.99. Further, the “Inhibition rate HL-7702” value in data set [4] (setting [7]) is reported as 73.58±2.30. Moreover, the “Inhibition rate BEL-7404” value in data set [5] (setting [7]) is 55.15±1.18.

On to `COC(=O)C1=NN(c2cccc(Br)n2)C2(C(C(=O)O)=NN(c3cccc(Br)n3)C2O)C1(C(=O)OC)c1c(C(=O)OC)nn(-c2cccc(Br)n2)c1O` (stereo not shown) [Compound 5, 1,8-Bis(6-bromopyridin-2-yl)-4-(1-(6-bromopyridin-2-yl)-5-hydroxy-3-(methoxycarbonyl)-1H-pyrazol-4-yl)-9-hydroxy-3,4-bis(methoxycarbonyl)-1,2,7,8-tetraazaspiro[4.4]nona-2,6-diene-6-carboxylic acid], for which the IC50 in data set [1] (Homo sapiens, NCI-H460) was determined as 94.56 ± 0.41 µM; in data set [2] (Homo sapiens) it was 76 ± 1.16 µM; in data set [3], 175.2 ± 1.1 µM; in data set [6] it was 77.56 ± 0.72 µM; in data set [4] (Homo sapiens, L02), 102.3 ± 0.85 µM; in data set [5] (Homo sapiens, BEL-7404), 84.3 ± 1.01 µM. Besides, the inhibition at 20 µM in data set [1] (setting [8]) was 25.4 ± 0.34%; in data set [2] (setting [9]), 35.9 ± 1.26%; in data set [3] (setting [7]), 19.5 ± 1.05%; in data set [6] it was 29.4 ± 0.65%; in data set [4] (setting [10]), 26.9 ± 0.79%; in data set [5] (setting [11]), 27.2 ± 0.94%.

Turning to `COC(=O)C1=NN(c2cccc(Br)n2)C2(C(C(=O)OC)=NN(c3cccc(Br)n3)C2O)C1(C(=O)OC)c1c(C(=O)OC)nn(-c2cccc(Br)n2)c1O` (stereo not shown) [Compound 4, Trimethyl-1,8-bis(6-bromopyridin-2-yl)-4-(1-(6-bromopyridin-2-yl)-5-hydroxy-3-(methoxycarbonyl)-1H-pyrazol-4-yl)-9-hydroxy-1,2,7,8-tetraazaspiro[4.4]nona-2,6-diene-3,4,6-tricarboxylate], the IC50 in data set [1] (Homo sapiens, NCI-H460) came out at 66.48 ± 0.57 µM; in data set [2] (Homo sapiens), 42.9 ± 1.41 µM; in data set [3], 10.7 ± 0.38 µM; in data set [6] it was 28.1 ± 1.01 µM; in data set [4] (Homo sapiens, L02), 96.14 ± 0.49 µM; in data set [5] (Homo sapiens, BEL-7404), 41.81 ± 0.37 µM. The inhibition at 20 µM in data set [1] (setting [8]) is 33.6 ± 1.38%; in data set [2] (setting [9]) it was 43.2 ± 1.15%; in data set [3] (setting [7]), 53.3 ± 0.92%; in data set [6] it was 40.2 ± 0.44%; in data set [4] (setting [10]) it was 35.1 ± 1.34%; in data set [5] (setting [11]), 39.6 ± 1.43%. The “Increase in HepG2 cytotoxicity compared to the free ligand 5” value in data set [3] (IC50 of 5 relative to IC50 of 4, HepG2) is listed as “approximately 16.44 fold”. Further, in data set [3], the “Cytotoxicity toward HepG2 enhanced compared with normal liver cell HL-7702” value is recorded as 9.02 times.

With `COC(=O)c1cc(OC(C)=O)n(-c2cccc(Br)n2)n1` [Compound 1, Methyl 5-(acetyloxy)-1-(6-bromo-2-pyridinyl)-1H-pyrazole-3-carboxylate], the IC50 worked out at 109 ± 1.65 µM in data set [1] (Homo sapiens, NCI-H460); 70.5 ± 1.33 µM in data set [2] (Homo sapiens); 37.1 ± 0.54 µM in data set [3]; 37.6 ± 1.03 µM in data set [6]; 111 ± 2.84 µM in data set [4] (Homo sapiens, L02); 66.5 ± 1.13 µM in data set [5] (Homo sapiens, BEL-7404). In addition, the inhibition at 20 µM came out at 34 ± 1.76% in data set [1] (setting [8]); 37.6 ± 1.72% in data set [2] (setting [9]); 47.21 ± 0.44% in data set [3] (setting [7]); 31.1 ± 1.39% in data set [6]; 26.5 ± 0.42% in data set [4] (setting [10]); 38.2 ± 1.99% in data set [5] (setting [11]). Moreover, the “Growth inhibition on HepG2 cell lines (in words)” value in data set [3] was “weakly growth inhibition”. Further, the “Cytotoxicity toward HepG2 enhanced compared with normal liver cell HL-7702” value in data set [3] worked out at 2.98 times.

For `COC(=O)c1cc(O)n(-c2cccc(Br)n2)n1` [Compound 2, Methyl 1-(6-bromo-2-pyridinyl)-5-hydroxy-1H-pyrazole-3-carboxylate], the IC50 in data set [1] (Homo sapiens, NCI-H460) turned out to be 40.7 ± 0.54 µM; in data set [2] (Homo sapiens), 46.2 ± 0.87 µM; in data set [3], 29.8 ± 0.91 µM; in data set [6], 44.8 ± 1.12 µM; in data set [4] (Homo sapiens, L02), 118 ± 3.34 µM; in data set [5] (Homo sapiens, BEL-7404), 125 ± 1.87 µM. Also, the inhibition at 20 µM in data set [1] (setting [8]) was determined as 38 ± 0.62%; in data set [2] (setting [9]) it was 42.5 ± 0.96%; in data set [3] (setting [7]), 43 ± 0.74%; in data set [6], 22.4 ± 1.74%; in data set [4] (setting [10]) it was 24.7 ± 0.59%; in data set [5] (setting [11]), 20.2 ± 1.18%. In data set [3], the “Growth inhibition on HepG2 cell lines (in words)” value was “weakly growth inhibition”. In addition, in data set [3], the “Cytotoxicity toward HepG2 enhanced compared with normal liver cell HL-7702” value came to 3.98 times.

On to `COC(=O)C1=NN(c2cccc(Br)n2)C(=O)C1(c1c(C(=O)OC)nn(-c2cccc(Br)n2)c1O)c1c(C(=O)OC)nn(-c2cccc(Br)n2)c1O` [Compound 3, Trimethyl 1,1′,1′′-tris(6-bromo-2-pyridinyl)-5,5′′-dihydroxy-5′-oxo-1′,5′-dihydro-1H,1′′H-4,4′: 4′,4′′-terpyrazole-3,3′,3′′-tricarboxylate], for which the IC50 was 38 ± 0.89 µM in data set [1] (Homo sapiens, NCI-H460); 85.38 ± 0.67 µM in data set [2] (Homo sapiens); 54.7 ± 0.81 µM in data set [3]; 33.6 ± 1.07 µM in data set [6]; 151 ± 3.06 µM in data set [4] (Homo sapiens, L02); 112 ± 2.78 µM in data set [5] (Homo sapiens, BEL-7404). Further, the inhibition at 20 µM amounted to 42.5 ± 2.27% in data set [1] (setting [8]); 32 ± 0.89% in data set [2] (setting [9]); 41 ± 1.27% in data set [3] (setting [7]); 33.3 ± 2.51% in data set [6]; 22.2 ± 1.05% in data set [4] (setting [10]); 24.6 ± 0.75% in data set [5] (setting [11]). Further, the “Cytotoxicity toward HepG2 enhanced compared with normal liver cell HL-7702” value in data set [3] worked out at 2.76 times.

The IC50 is the concentration that inhibits the measured activity by half. A low value points to greater potency. The inhibition is the drop in the measured response relative to a control, in per cent.
